Measurements published in patent publication US12522631B2, “Compounds for use in the treatment of liver disease” (The Provost, Fellows, Foundation Scholars, And The Other …, priority 2019, dated 2026).
Structures can show the parent of a compound that is named as a salt. Where two headings read alike, the source gives them in different places.

Columns and labels:
[1] = hamsters; cited from earlier work
[2] = compared to ursodeoxycholic acid; cited from earlier work
[3] = oral, rats; cited from earlier work
[4] = test system: HUH-7 cells; test: alamarBlue cell viability assay, HUH-7 cells treated with tunicamycin
Excerpt: Tunicamycin is known to induce Endoplasmic Reticulum (ER) stress, resulting ultimately in induction of apopotosis.

[5] = test system: HUH-7 cells; test: Cytoprotection model: DCA-induced cell death in HUH-7 cells
Procedure: HUH-7 cells were then treated with UDCA and TUDCA in increasing concentration.
HUH-7 cells in culture were then treated with a large library of UDCA 7-analogues to screen for compounds lacking intrinsic toxicity.

[6] = test system: ANIT-induced model of cholangitis; test: Rat ANIT-induced model of cholangitis; format: in vivo, Sprague-Dawley rats; settings: oral, over a week, 20-30 mg/kg
Procedure: This rat model of cholangitis was employed to assess the efficacy of lead compounds by monitoring aspartate aminotransferase (AST) serum levels and alanine aminotransferase (ALT) serum levels.
Test compounds were to be assessed for their effect on liver damage using this chronic ANIT-induced model of cholangitis. UDCA was tested orally at high dose of 100 mg/kg in order to ensure an effect in the functional model that mimics its clinical effects in cholestasis patients. […] In this case ANIT was added to the chow at 0.1% inducing cholestasis and the compounds were tested by oral administration over the course of a week. Serum liver enzymes AST and ALT were measured as measures of liver damage and cholestasis. In comparison to the UDCA dose, the sulfonamide and triazole were dosed in the range 20-30 mg/kg.

[7] = test system: HUH-7 cells; test: alamarBlue cell viability assay, HUH-7 cells treated with DCA; format: cell-based; settings: 24 h before DCA 200 μM, then co-treated 24 h (FIG. 14a); for cytoprotective effect (alamarBlue): 100, 50, 10 μM
Excerpt: (§1) The difference between the observed cell viability in each of the assays is a consequence of the different properties measured in each assay. The alamarBlue™ assay uses resazurin-based reagents that function as cell health indicators by using the reducing power of living cells to quantitatively measure viability. Upon entering living cells, resazurin is reduced to resorufin, a compound that is red in color and highly fluorescent. The MTT assay is a colorimetric assay for assessing cell metabolic activity. NAD(P)H-dependent cellular oxidoreductase enzymes may, under defined conditions, reflect the number of viable cells present.

[8] = test system: HepG2 cells; test: alamarBlue cell viability assay, HepG2 cells treated with tunicamycin; format: cell-based
[9] = test system: HUH-7 cells; test: MTT cell viability assay, HUH-7 cells treated with DCA; format: cell-based; settings: 100, 50, 10 μM; 24 h before DCA 200 μM, then co-treated 24 h (FIG. 14b)
Excerpt: as §1, with “The” for “The difference between the observed cell viability in each of the assays is a consequence of the different properties measured in each assay. The”

[10] = test system: HUH-7 liver cancer cells; format: cell-based
Procedure: A model of bile-acid induced liver injury was developed using HUH-7 liver cancer cells growing in culture. These were treated with increasing concentrations of DCA and GCDCA and the effect monitored using cell count on a high content platform (for example on an IN Cell analyser), MTT as a measure of metabolic activity and propidium iodide (PI). PI is normally cell impermeable so cellular staining is used as a way to detect cells with damaged walls. Appearance of PI positive cells soon after treatment with bile acid and PI indicated necrosis possibly through surfactant damage to the cell wall. A reduction in cell number or metabolic activity occurred without significant PI staining is consistent with an apoptotic form of cell death. DCA caused significant cell death in the range 200-500 μM associated with apoptosis because of the low levels of PI staining. […] (See FIG. 3(a) and FIG. 3(b)).

[11] = test system: HUH-7 cells; test: Cytoprotection model: GCDCA-induced cell death in HUH-7 cells; format: cell-based; settings: 24 h pre-treatment, then co-treatment with GCDCA
[12] = test system: hepatocytes in cell culture; settings: in vitro, cited from earlier work
[13] = cited from earlier work
[14] = 24 h before TM 5 μM, then co-treated 24 h (FIG. 15a)

C[C@H](CCC(=O)O)[C@H]1CCC2C3C(CC[C@@]21C)[C@@]1(C)CC[C@@H](O)CC1C[C@]3(C)O (stereo partly drawn)
resistance to bacterial modification (metabolism) [1]: more resistant than the naturally occurring analogues

C[C@H](CCC(=O)O)[C@H]1CCC2C3C(CC[C@@]21C)[C@@]1(C)CC[C@@H](O)CC1[C@@H](C)[C@@H]3O (stereo partly drawn) [6-α-methyl ursodeoxycholic acid]
metabolic stability [2]: increased metabolic stability compared to ursodeoxycholic acid

CC(CCC(=O)O)C1CCC2C3C(O)CC4CC(OS(=O)(=O)O)CCC4(C)C3CCC12C (stereo not drawn) [C-3 sulfate]
faecal lithocholic acid [3]: increased faecal lithocholic acid significantly

CC(CCC(=O)O)C1CCC2C3C(OS(=O)(=O)O)CC4CC(O)CCC4(C)C3CCC12C (stereo not drawn) [C-7 sulfate]
faecal lithocholic acid/deoxycholic acid ratio [3]: reduced

C[C@H](CCC(=O)O)[C@H]1CC[C@H]2[C@@H]3[C@@H](NS(C)(=O)=O)C[C@@H]4C[C@H](O)CC[C@]4(C)[C@H]3CC[C@]12C [Compound 21, 3α-hydroxy-7β-(methanesulfonamido)-5β-cholanoate]
cell viability on pre/co-treatment with tunicamycin [4, 14]: significant increase in cell viability | concentration giving complete maintenance of cell viability (or effects of similar size) [4, 14]: 10 µM | concentration range of effective inhibition of DCA-induced cell death ([5]; FIG. 7): 10 to 100 µM | AST serum levels ([6]; ANIT 0.1% in chow (FIG. 8a)): normalised AST serum levels | ALT serum levels ([6]; ANIT 0.1% in chow (FIG. 8b)): normalised ALT serum levels | cytoprotective effect (alamarBlue) [7]: significant cytoprotective effect at all concentrations measured | concentration with almost complete cell viability/cytoprotection [7]: ≥ 50 µM | cytoprotective effect against tunicamycin ([8]; 24 h before TM 5 μM, then co-treated 24 h (FIG. 15b)): cytoprotective effect of sulfonamide (21) was also observed | comparison with UDCA and TUDCA under the same conditions ([8]; lowest concentration tested of sulfonamide (21)): outperformed all concentrations of UDCA and TUDCA | cytoprotective effect / increase in cell viability (MTT) [9]: significant cytoprotective effect

C[C@H](CCC(=O)O)[C@H]1CC[C@H]2[C@@H]3CC[C@@H]4C[C@H](O)CC[C@]4(C)[C@H]3C[C@H](O)[C@]12C [DCA, deoxycholic acid]
concentration range causing significant cell death ([10]; human): 200 to 500 µM

CC(CCC(=O)NCC(=O)O)C1CCC2C3C(O)CC4CC(O)CCC4(C)C3CCC12C (stereo not drawn) [GCDCA, glycochenodeoxycholic acid]
effect on cell viability [10]: reduction in cell viability at higher concentration with greater evidence of necrosis

C[C@H](CCC(=O)NCCS(=O)(=O)O)[C@H]1CC[C@H]2[C@@H]3[C@@H](O)C[C@@H]4C[C@H](O)CC[C@]4(C)[C@H]3CC[C@]12C [TUDCA, tauroursodeoxycholic acid]
cytoprotective effect against GCDCA [11]: significant cytoprotective effect | concentration giving complete maintenance of cell viability (or effects of similar size) [4, 14]: 100 µM | protective effect when compound withdrawn before DCA ([5]; 24 h pre-treatment (UDCA 100 μM, TUDCA 1 mM), withdrawn, then DCA (FIG. 4c)): protective effect of TUDCA was not observed | cell viability 24 h after DCA, compared to DCA alone ([5]; 24 h pre-treatment, then DCA 200 μM added, TUDCA 1 mM, UDCA 100 μM (FIG. 4b)): significant increase in cell viability | cell viability at 24 h post treatment, combination with DCA ([5]; combined with DCA without pre-treatment (FIG. 4a)): did not lead to increased cell viability | concentration giving statistically significant increase in cell viability ([5]; pre-/co-treatment with DCA (FIG. 5a)): ≥ 1 mM | protective effect in cell-based models ([12]; up to the mM concentration range): weakly but consistently protective | significant cell death on treatment in increasing concentration [10]: did not | cytoprotective effect (alamarBlue) [7]: less than with UDCA and the sulphonamide (21) | cytoprotective effect / increase in cell viability (MTT) [9]: significantly lesser degree

C[C@H](CCC(=O)O)[C@H]1CC[C@H]2[C@@H]3[C@@H](O)C[C@@H]4C[C@H](O)CC[C@]4(C)[C@H]3CC[C@]12C [UDCA, ursodeoxycholic acid]
faecal lithocholic acid [3]: increased faecal lithocholic acid significantly | fraction absorbed ([13]; oral administration): 30-60% | share of absorption occurring in the small intestine ([13]; via passive diffusion): around 80% | concentration giving complete maintenance of cell viability (or effects of similar size) [4, 14]: 100 µM | concentration at which it can contribute to cell death [12]: > 200 µM | significant cell death on treatment in increasing concentration ([10]; human): 300 μM-1 mM

tunicamycin
decrease in cell viability (alamarBlue) ([4]; tunicamycin alone, 5 μM, HUH7): approximately 30%
